Literature values as cited in US12036321B2, “Compositions and methods for treating or preventing multiple organ dysfunction syndrome” (VIVACELLE BIO, INC., priority 2020, dated 2024).
Where two headings read alike, the source gives them in different places. One block for each compound: values may come before it.

Columns and labels:
[1] = tested on: Nitric oxide synthase (NOS); conditions: nitric oxide synthase inhibitor, Lopez et al., Crit. Care Med. 2004
human neutrophils = conditions: Simpkins et al., Life Sci 1985
[2] = Battion et al., J Amer Oil Chem Soc 1968

SMILES: CN=C(N)NCCC[C@H](N)C(=O)O.Cl [546C88]
outcome of trial in patients with septic shock [1]: increased mortality and multiple organ failure
outcome of trial in patients with septic shock ([1]; listed as 54C88): increased mortality

SMILES: C=CCN1CC[C@]23c4c5ccc(O)c4O[C@H]2C(=O)CC[C@]3(O)[C@H]1C5 [(+) naloxone]
concentration range that produces anti-inflammatory effect (human neutrophils): 10^−5-10^−4 M

solubility of oxygen in lipid relative to water [2]: 4.41 times
SMILES: O=O [Oxygen]
